{"source": "patent US8372865B2", "about": "“Dihydropyridone amides as P2X7 modulators” (Roche Palo Alto LLC, priority 2008, dated 2013)", "target": "T1, P2X7 receptor (UniProt Q99572)", "T1 sequence (Q99572 1-595)": "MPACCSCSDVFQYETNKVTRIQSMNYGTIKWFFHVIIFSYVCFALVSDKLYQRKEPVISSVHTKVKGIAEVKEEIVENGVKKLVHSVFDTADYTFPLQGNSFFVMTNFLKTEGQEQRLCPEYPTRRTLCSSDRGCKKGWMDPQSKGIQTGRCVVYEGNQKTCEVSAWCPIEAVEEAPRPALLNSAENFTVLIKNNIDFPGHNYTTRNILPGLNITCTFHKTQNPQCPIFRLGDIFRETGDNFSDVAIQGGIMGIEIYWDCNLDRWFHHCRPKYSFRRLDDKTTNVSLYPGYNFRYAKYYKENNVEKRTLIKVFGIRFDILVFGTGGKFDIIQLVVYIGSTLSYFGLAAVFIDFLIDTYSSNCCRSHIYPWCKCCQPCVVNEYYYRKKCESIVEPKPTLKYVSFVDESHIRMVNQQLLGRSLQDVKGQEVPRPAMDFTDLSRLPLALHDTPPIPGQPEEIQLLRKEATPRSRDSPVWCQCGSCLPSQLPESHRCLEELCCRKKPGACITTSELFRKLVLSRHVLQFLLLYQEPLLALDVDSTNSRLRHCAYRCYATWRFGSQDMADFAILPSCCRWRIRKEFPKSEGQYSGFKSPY", "experiment": "pKi of Table 1 (assay not stated)", "format": "cell-based", "procedure": "Intracellular Calcium Flux (FLIPR) Assay\nStock solutions of compounds were prepared from powders as a 10 mM DMSO stock solution. These solutions were stored at RT during the two week period of these experiments to prevent freeze-thaw of the DMSO stocks. The DMSO stocks were added to the appropriate assay buffer at a concentration of 10 μM, and then diluted serially to the final concentrations that were tested. […] The aqueous solutions of compounds as well as ATP (Sigma A7699) and BzATP (Sigma B6396) were prepared fresh for each day of experiment.\n1321N1 cells stably expressing the full length human P2X7 gene (1321N1-hP2X7) and HEK293 cells stably expressing the full length rat P2X7 gene (HEK293-rP2X7) were obtained from the Roche Cell Culture Facility. 1321N1-hP2X7 cells were grown in Dulbecco's Modified Eagle's Medium (DMEM) high glucose supplemented with 10% FBS and 250 μg/mL G418. HEK293-rP2X7 cells were grown in DMEM/F-12 supplemented with 10% FBS, 1 mM CaCl2, 2 mM MgCl2, 2 mM L-Glutamine and 500 μg/ml G418. Cells were split such that they never became>70% confluent.\nOn the day prior to the experiment, 1321N1-hP2X7 or HEK293-rP2X7 cells were released into suspension with calcium-free PBS+Versene and washed by centrifugation with calcium-free PBS to remove the Versene. Cells were resuspended in growth medium at a density of 2.5×10^5 cells/mL and seeded into black walled, clear bottom 96 well plates (50,000 cells/well) approximately 18 hr prior to intracellular calcium flux experiments.\nOn the day of the experiment, plates were washed with FLIPR buffer (calcium- and magnesium-free Hank's Balanced Salt Solution (HBSS) supplemented with 10 mM Hepes, 2.5 mM probenecid and 2 mM calcium chloride) using a BIO-TEK 96 channel plate washer and incubated with […] fluo-3 dye at 37° C. for one hr. The dye was then removed by plate washing and the cells were allowed to equilibrate for 20 min at room temperature with antagonist or vehicle (FLIPR buffer). Agonist (100 μM BzATP final concentration for hP2X7; 5 μM BzATP final concentration or rP2X7) was added online with the FLIPR and fluorescence measurements made at 1 sec intervals for 60 sec followed by 3 sec intervals for a further 4 min (5 min total). A final addition of 5 μM ionomycin was made and the maximal BzATP-evoked fluorescence normalized to the maximal ionomycin-evoked fluorescence."}
{"smiles": "CCc1cc2c(cc1NC(=O)C1=CNC(=O)C[C@H]1c1ccc(F)cc1)N(C)C(=O)CO2", "note": "[Compound 25, (S)-4-(4-Fluoro-phenyl)-6-oxo-1,4,5,6-tetrahydro-pyridine-3-carboxylic acid (7-ethyl-4-methyl-3-oxo-3,4-dihydro-2H-benzo[1,4]oxazin-6-yl)-amide]", "values": [{"measurement": "pKi", "value": 6.88}]}
{"smiles": "CCc1cc2c(cc1NC(=O)C1=CNC(=O)C[C@H]1c1cccc(F)c1)N(C)C(=O)CO2", "note": "[Compound 26, (S)-4-(3-Fluoro-phenyl)-6-oxo-1,4,5,6-tetrahydro-pyridine-3-carboxylic acid (7-ethyl-4-methyl-3-oxo-3,4-dihydro-2H-benzo[1,4]oxazin-6-yl)-amide]", "values": [{"measurement": "pKi", "value": 7.125}]}
{"smiles": "Cc1ccc2ncccc2c1NC(=O)C1=CNC(=O)C[C@H]1c1ccc(F)cc1", "note": "[Compound 27, (S)-4-(4-Fluoro-phenyl)-6-oxo-1,4,5,6-tetrahydro-pyridine-3-carboxylic acid (6-methyl-quinolin-5-yl)-amide]", "values": [{"measurement": "pKi", "value": 7.64}]}
{"smiles": "Cc1cc2cnn(CCO)c2cc1NC(=O)C1=CNC(=O)C[C@H]1c1ccc(F)cc1", "note": "[Compound 28, (S)-4-(4-Fluoro-phenyl)-6-oxo-1,4,5,6-tetrahydro-pyridine-3-carboxylic acid [1-(2-hydroxy-ethyl)-5-methyl-1H-indazol-6-yl]-amide]", "values": [{"measurement": "pKi", "value": 7.645}]}
{"smiles": "Cc1cc2cc(C)n(CCO)c2cc1NC(=O)C1=CNC(=O)C[C@H]1c1ccc(F)cc1", "note": "[Compound 29, (S)-4-(4-Fluoro-phenyl)-6-oxo-1,4,5,6-tetrahydro-pyridine-3-carboxylic acid [1-(2-hydroxy-ethyl)-2,5-dimethyl-1H-indol-6-yl]-amide]", "values": [{"measurement": "pKi", "value": 6.285}]}
{"smiles": "Cc1cc2c(C)cn(CCO)c2cc1NC(=O)C1=CNC(=O)C[C@H]1c1ccc(F)cc1", "note": "[Compound 30, (S)-4-(4-Fluoro-phenyl)-6-oxo-1,4,5,6-tetrahydro-pyridine-3-carboxylic acid [1-(2-hydroxy-ethyl)-3,5-dimethyl-1H-indol-6-yl]-amide]", "values": [{"measurement": "pKi", "value": 6.89}]}
{"smiles": "CCc1cc2c(cc1NC(=O)C1=CNC(=O)C[C@H]1c1ccc(F)cc1)N(C)C(=O)CC2", "note": "[Compound 31, (S)-4-(4-Fluoro-phenyl)-6-oxo-1,4,5,6-tetrahydro-pyridine-3-carboxylic acid (6-ethyl-1-methyl-2-oxo-1,2,3,4-tetrahydro-quinolin-7-yl)-amide]", "values": [{"measurement": "pKi", "value": 6.805}]}
{"smiles": "CC1=C(C(=O)Nc2ccc3[nH]ncc3c2)C(c2ccc(F)cc2)CC(=O)N1", "note": "(centres unmarked) [Compound 32, 4-(4-Fluoro-phenyl)-2-methyl-6-oxo-1,4,5,6-tetrahydro-pyridine-3-carboxylic acid (1H-indazol-5-yl)-amide]", "values": [{"measurement": "pKi", "value": 5.14}]}
{"smiles": "Cc1cc2c(cc1NC(=O)C1=CNC(=O)C[C@H]1c1ccc(F)cc1)N(CCO)C(=O)CC2", "note": "[Compound 33, (S)-4-(4-Fluoro-phenyl)-6-oxo-1,4,5,6-tetrahydro-pyridine-3-carboxylic acid [1-(2-hydroxy-ethyl)-6-methyl-2-oxo-1,2,3,4-tetrahydro-quinolin-7-yl]-amide]", "values": [{"measurement": "pKi", "value": 6.285}]}
{"smiles": "O=C1C[C@@H](c2ccc(F)cc2)C(C(=O)Nc2cc3c(cc2Br)N(CCO)C(=O)CC3)=CN1", "note": "[Compound 34, (S)-4-(4-Fluoro-phenyl)-6-oxo-1,4,5,6-tetrahydro-pyridine-3-carboxylic acid [7-bromo-1-(2-hydroxy-ethyl)-2-oxo-1,2,3,4-tetrahydro-quinolin-6-yl]-amide]", "values": [{"measurement": "pKi", "value": 6.785}]}
{"smiles": "CCc1c(NC(=O)C2=CNC(=O)C[C@H]2c2ccc(F)cc2)ccc2nc(C)ccc12", "note": "[Compound 35, (S)-4-(4-Fluoro-phenyl)-6-oxo-1,4,5,6-tetrahydro-pyridine-3-carboxylic acid (5-ethyl-2-methyl-quinolin-6-yl)-amide]", "values": [{"measurement": "pKi", "value": 7.18}]}
{"smiles": "Cc1cc2c(cc1NC(=O)C1=CNC(=O)C[C@H]1c1ccc(F)cc1)NC(=O)CO2", "note": "[Compound 36, (S)-4-(4-Fluoro-phenyl)-6-oxo-1,4,5,6-tetrahydro-pyridine-3-carboxylic acid (7-methyl-3-oxo-3,4-dihydro-2H-benzo[1,4]oxazin-6-yl)-amide]", "values": [{"measurement": "pKi", "value": 5.56}]}
{"smiles": "O=C1C[C@@H](c2ccc(F)cc2)C(C(=O)Nc2cc3c(cc2Br)OCC(=O)N3CCO)=CN1", "note": "[Compound 38, (S)-4-(4-Fluoro-phenyl)-6-oxo-1,4,5,6-tetrahydro-pyridine-3-carboxylic acid [7-bromo-4-(2-hydroxy-ethyl)-3-oxo-3,4-dihydro-2H-benzo[1,4]oxazin-6-yl]-amide]", "values": [{"measurement": "pKi", "value": 5.25}]}
{"smiles": "Cc1cc2c(cc1NC(=O)C1=CNC(=O)C[C@H]1c1ccc(F)cc1)N(CCO)C(=O)CO2", "note": "[Compound 39, (S)-4-(4-Fluoro-phenyl)-6-oxo-1,4,5,6-tetrahydro-pyridine-3-carboxylic acid [4-(2-hydroxy-ethyl)-7-methyl-3-oxo-3,4-dihydro-2H-benzo[1,4]oxazin-6-yl]-amide]", "values": [{"measurement": "pKi", "value": 5.48}]}
{"smiles": "CCc1cc2c(cc1NC(=O)C1=CNC(=O)C[C@H]1c1ccc(F)cc1)N(CCO)C(=O)CO2", "note": "[Compound 40, (S)-4-(4-Fluoro-phenyl)-6-oxo-1,4,5,6-tetrahydro-pyridine-3-carboxylic acid [7-ethyl-4-(2-hydroxy-ethyl)-3-oxo-3,4-dihydro-2H-benzo[1,4]oxazin-6-yl]-amide]", "values": [{"measurement": "pKi", "value": 6.485}]}
{"smiles": "O=C1C[C@@H](c2ccc(F)cc2)C(C(=O)Nc2cc3c(cc2Br)CCC(=O)N3)=CN1", "note": "[Compound 41, (S)-4-(4-Fluoro-phenyl)-6-oxo-1,4,5,6-tetrahydro-pyridine-3-carboxylic acid (6-bromo-2-oxo-1,2,3,4-tetrahydro-quinolin-7-yl)-amide]", "values": [{"measurement": "pKi", "value": 5.145}]}
{"smiles": "CCc1cc2cnn(C)c2cc1NC(=O)C1=CNC(=O)C[C@H]1c1ccc(F)cc1", "note": "[Compound 42, (S)-4-(4-Fluoro-phenyl)-6-oxo-1,4,5,6-tetrahydro-pyridine-3-carboxylic acid (5-ethyl-1-methyl-1H-indazol-6-yl)-amide]", "values": [{"measurement": "pKi", "value": 7.74}]}
{"smiles": "Cc1cc2c(cc1NC(=O)C1=CNC(=O)C[C@H]1c1ccc(F)cc1)CCC(=O)N2C", "note": "[Compound 43, (S)-4-(4-Fluoro-phenyl)-6-oxo-1,4,5,6-tetrahydro-pyridine-3-carboxylic acid (1,7-dimethyl-2-oxo-1,2,3,4-tetrahydro-quinolin-6-yl)-amide]", "values": [{"measurement": "pKi", "value": 7.505}]}
{"smiles": "CCc1cc2cnn(C)c2cc1NC(=O)C1=CNC(=O)C[C@H]1c1cccc(F)c1", "note": "[Compound 44, (S)-4-(3-Fluoro-phenyl)-6-oxo-1,4,5,6-tetrahydro-pyridine-3-carboxylic acid (5-ethyl-1-methyl-1H-indazol-6-yl)-amide]", "values": [{"measurement": "pKi", "value": 7.825}]}
{"smiles": "CCc1cc2cnn(CCO)c2cc1NC(=O)C1=CNC(=O)C[C@H]1c1cccc(F)c1", "note": "[Compound 45, (S)-4-(3-Fluoro-phenyl)-6-oxo-1,4,5,6-tetrahydro-pyridine-3-carboxylic acid [5-ethyl-1-(2-hydroxy-ethyl)-1H-indazol-6-yl]-amide]", "values": [{"measurement": "pKi", "value": 7.7}]}
{"smiles": "CCc1c(NC(=O)C2=CNC(=O)C[C@H]2c2cccc(F)c2)ccc2nc(C)ccc12", "note": "[Compound 46, (S)-4-(3-Fluoro-phenyl)-6-oxo-1,4,5,6-tetrahydro-pyridine-3-carboxylic acid (5-ethyl-2-methyl-quinolin-6-yl)-amide]", "values": [{"measurement": "pKi", "value": 7.635}]}
{"smiles": "O=C1C[C@@H](c2ccc(F)cc2)C(C(=O)Nc2cccc3ccncc23)=CN1", "note": "[Compound 47, (S)-4-(4-Fluoro-phenyl)-6-oxo-1,4,5,6-tetrahydro-pyridine-3-carboxylic acid isoquinolin-8-ylamide]", "values": [{"measurement": "pKi", "value": 5.29}]}
{"smiles": "Cc1cc2c(NC(=O)C3=CNC(=O)C[C@H]3c3ccc(F)cc3)cccc2nn1", "note": "[Compound 48, (S)-4-(4-Fluoro-phenyl)-6-oxo-1,4,5,6-tetrahydro-pyridine-3-carboxylic acid (3-methyl-cinnolin-5-yl)-amide]", "values": [{"measurement": "pKi", "value": 5.425}]}
